According to the NIST ThermoML archive (doi:10.1021/je101012n):
Numbers after ± are expanded uncertainties.

Assay: mn = molality of the nth substance listed, in mol/kg
Conditions: 101 kPa, Liquid, Alternating current cell with electrodes

[Cl][Fe][Cl] [ferrous chloride] + O
electrical conductivity [S/m]
Conditions	278.1 K	283.1 K	298.15 K	308.15 K	318.15 K	343.15 K	363.15 K
m1 = 9e-05	0.3365 ± 0.0013	0.3724 ± 0.0015	0.4835 ± 0.0019	0.5486 ± 0.0022	0.6142 ± 0.0025	0.7702 ± 0.0031	0.8954 ± 0.0036
m1 = 0.000726	0.3437 ± 0.0014	0.3802 ± 0.0015	0.494 ± 0.002	0.5646 ± 0.0023	0.635 ± 0.0025	0.8025 ± 0.0032	0.9282 ± 0.0037
m1 = 0.00908	0.4397 ± 0.0018	0.4997 ± 0.002	0.6568 ± 0.0026	0.7661 ± 0.0031	0.8715 ± 0.0035	1.148 ± 0.0046	1.354 ± 0.0054
m1 = 0.1169	1.6 ± 0.0064	1.807 ± 0.0072	2.494 ± 0.01	3.003 ± 0.012	3.516 ± 0.014	4.889 ± 0.02	5.966 ± 0.024

[Cl-].[Na+] [sodium chloride] + O
electrical conductivity [S/m]
Conditions	278.15 K	283.15 K	298.15 K	308.15 K	318.15 K	343.15 K	363.15 K
m1 = 0.000104	0.0008271 ± 3.3e-06	0.0009431 ± 3.8e-06	0.001295 ± 5e-06	0.00161 ± 6e-06	0.001893 ± 8e-06	0.002693 ± 1.1e-05	0.003358 ± 1.3e-05
m1 = 0.00099	0.007531 ± 3e-05	0.008619 ± 3.4e-05	0.01224 ± 5e-05	0.01478 ± 6e-05	0.01747 ± 7e-05	0.02497 ± 0.0001	0.03126 ± 0.00013
m1 = 0.01	0.07349 ± 0.00029	0.08395 ± 0.00034	0.1185 ± 0.0005	0.1425 ± 0.0006	0.1694 ± 0.0007	0.2418 ± 0.001	0.3029 ± 0.0012
m1 = 0.1	0.6588 ± 0.0026	0.7505 ± 0.003	1.06 ± 0.0042	1.277 ± 0.0051	1.505 ± 0.006	2.148 ± 0.0086	2.691 ± 0.011
m1 = 0.5	2.948 ± 0.012	3.348 ± 0.013	4.652 ± 0.019	5.625 ± 0.022	6.624 ± 0.026	9.35 ± 0.037	11.68 ± 0.047
m1 = 1	5.444 ± 0.022	6.123 ± 0.025	8.43 ± 0.034	10.19 ± 0.041	11.94 ± 0.048	16.8 ± 0.067	20.94 ± 0.084
